Values of other authors, collected in patent US10117939B2, “Pharmaceutical compositions comprising nebivolol or a nebivolol analogue” (MYLAN PHARMACEUTICALS ULC, priority 2007, dated 2018).

Details: as described in EP 0 744 946

| Compound | Dissolution (in words) |
| --- | --- |
| Cl.O[C@H](CNC[C@@H](O)[C@H]1CCc2cc(F)ccc2O1)[C@@H]1CCc2cc(F)ccc2O1 (relative stereo) [nebivolol hydrochloride, ((±))-(R*(S*(S*—(S*))))-(alpha),(alpha)′-(iminobis(methylene)bis-(6-fluoro-3,4-dihydro-2H-1-benzopyran-2-methanol)] | poor dissolution |
| Cl.O[C@H](CNC[C@@H](O)[C@H]1CCc2cc(F)ccc2O1)[C@@H]1CCc2cc(F)ccc2O1 [“micronized” nebivolol hydrochloride] | even worse than material in the normal crystalline form |
